# Measured values reported in publication PMC6225123, “Optimization of Aminoimidazole Derivatives as Src Family Kinase Inhibitors” (Molecules : A Journal of Synthetic Chemistry and Natural …, 2018).
# Where two headings read alike, the source gives them in different places.
# How the values were obtained:
# [1] = molecular target: T1, LynA (Homo sapiens, UniProt P07948); test: Z'-LYTE kinase assay (FRET), SFK profiling; format: biochemical; details: isolated enzyme, mean ± SD of two independent experiments; read-out: Lyn IC50
# T1 construct: (Fyn, LynA, and Yes1, all human recombinant full-length proteins)
# Protocol: (§3) Enzymatic assays to determine the kinase inhibitory activity of NCEs were performed using an automatic liquid-handling device (Microlab STAR Hamilton) and Z’-LYTE Kinase Assay Platform, a fluorescence resonance energy transfer (FRET)-based assay platform compatible with high-throughput screening (HTS) applications. […] The assay procedure was carried out according to the supplier’s indications. […] Final results have been expressed as percent inhibition, and IC50 values were calculated by non-linear curve fitting using GraphPad Prism software (version 6 for Windows). The inter-experimental variability of IC50 values resulted within accepted limits of ±0.5 log units.
# [2] = molecular target: T2, Fyn (Homo sapiens, UniProt P06241); test: Z'-LYTE kinase assay (FRET), SFK profiling; format: biochemical; details: isolated enzyme, mean ± SD of two independent experiments
# T2 construct: (Fyn, LynA, and Yes1, all human recombinant full-length proteins)
# Protocol: as §3
# [3] = molecular target: active human recombinant Src (Homo sapiens, UniProt P12931); test: Z'-LYTE kinase assay (FRET), primary screen; format: biochemical; details: isolated enzyme, mean ± SD of two independent experiments
# Protocol: as §3
# [4] = test system: Jak2; parameters: method as in PMID 24359159; details: cited from earlier work
# [5] = test system: SH-SY5Y neuroblastoma cell line; test: Antiproliferative assay, viable cell count after 72 h; format: cell-based, human; details: for increased activity compared to the hit compound 2 on SH-SY5Y cells: 72 h, ratio of IC50 values; for IC50: Homo sapiens, 72 h incubation, read-out: IC50 antiproliferative activity on SH-SY5Y cells
# Protocol: (§1) Starting from these promising results in enzymatic assays, we decided to test NCEs 4 on K562 CML and SH-SY5Y NB cell lines, to evaluate if they are endowed with an increased antiproliferative activity compared with the hit compound 2. A hyperactivation of SFKs has been detected in both K562 and SH-SY5Y cell lines. Cells were treated with increasing concentrations of compounds and cell proliferation was measured by counting viable cells after 72 h of incubation. […] The activity of these compounds could be due not only to Src inhibition, but also to their effect on Fyn and Lyn, both involved in NB development.
# (§2) In vitro experiments were carried out using human neuroblastoma cell line SH-SY5Y, human glioblastoma cell line U-87, and human erythroleukemia cell line K-562. Cell lines were obtained from American Tissue Culture Collection (ATCC, SH-SY5Y CRL-2266; U-87 HTB-14; K-562 CCL-243). K-562 cells were cultured in RPMI medium with 10% FCS. SH-SY5Y and U-87 cells were cultured in DMEM medium with 10% FCS. In order to determine antiproliferative effect of NCE compounds cells were seeded at density of 5 × 10^4 cells/mL (K-562) or 10 × 10^4 cells/cm^2 (SH-SY5Y, U-87) and treated with increasing concentrations of NCE compounds. Control cells were treated with the vehicle of the experimental point containing the highest percentage of DMSO. Cell cultures were maintained at 37 °C in 5% v/v CO2 for 72 h. Cell number and vitality were evaluated on cell suspension using the automatic cell counter NucleoCounter® (Chemometec, Denmark). Results from the NucleoCounter represented either total or non-viable cell concentration, depending on the sample preparation indicated by the manufacturer. Each experiment was performed at least three times and results were expressed as mean and standard deviation.
# [6] = test system: K562 CML cell line; test: as above; format: cell-based; details: Homo sapiens; K562, 72 h incubation; read-out: IC50 antiproliferative activity on K562 cells
# Protocol: as §1
# In vitro experiments were carried out using human neuroblastoma cell line SH-SY5Y, human glioblastoma cell line U-87, and human erythroleukemia cell line K-562. Cell lines were obtained from American Tissue Culture Collection (ATCC, SH-SY5Y CRL-2266; U-87 HTB-14; K-562 CCL-243). K-562 cells were cultured in RPMI medium with 10% FCS. SH-SY5Y and U-87 cells were cultured in DMEM medium with 10% FCS. […] Cell number and vitality were evaluated on cell suspension using the automatic cell counter NucleoCounter® (Chemometec, Denmark). […] Each experiment was performed at least three times and results were expressed as mean and standard deviation.
# [7] = test system: U87 glioblastoma multiforme cells; test: as above; format: cell-based; details: Homo sapiens; U87, 72 h incubation
# Protocol: A possible explanation could be the multidrug resistance mechanisms that GBM cells usually carry: an example is the overexpression of membrane channels (ABCB1) that are able to pump different kind of drugs out of the cells. In Supplementary Materials, Figure S1, the activity of other NCEs on U87 GBM cell line are reported.
# as §2, with “Results from the NucleoCounter represented either total or non-viable cell concentration, depending on the sample preparation indicated by the manufacturer.” left out
# [8] = molecular target: T3, Yes1 (Homo sapiens, UniProt P07947); test: Z'-LYTE kinase assay (FRET), SFK profiling; format: biochemical; details: isolated enzyme, mean ± SD of two independent experiments; read-out: Yes IC50
# T3 construct: (Fyn, LynA, and Yes1, all human recombinant full-length proteins)
# Protocol: as §3
# [9] = test system: K562 CML cell line; parameters: method as in PMID 26514807; details: previous work; cited from earlier work
# [10] = test system: SH-SY5Y neuroblastoma cell line; parameters: method as in PMID 26514807; details: previous work; cited from earlier work
# active human recombinant Src, sequence (P12931 whole entry): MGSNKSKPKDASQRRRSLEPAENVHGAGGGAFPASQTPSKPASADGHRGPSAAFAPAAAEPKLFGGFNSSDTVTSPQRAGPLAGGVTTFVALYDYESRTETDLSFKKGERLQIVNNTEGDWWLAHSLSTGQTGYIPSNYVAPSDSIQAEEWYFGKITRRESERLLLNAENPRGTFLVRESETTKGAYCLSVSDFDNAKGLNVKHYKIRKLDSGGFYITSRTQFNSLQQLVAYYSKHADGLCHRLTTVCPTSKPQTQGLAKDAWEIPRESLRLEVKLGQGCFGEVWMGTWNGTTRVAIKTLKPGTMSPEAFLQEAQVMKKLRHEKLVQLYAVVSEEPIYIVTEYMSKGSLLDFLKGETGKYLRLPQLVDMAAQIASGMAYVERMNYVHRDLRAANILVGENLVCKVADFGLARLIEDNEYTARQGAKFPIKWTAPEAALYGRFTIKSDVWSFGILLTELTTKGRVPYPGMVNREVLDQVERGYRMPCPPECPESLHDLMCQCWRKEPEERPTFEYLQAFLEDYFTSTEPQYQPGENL
# T1 sequence (P07948 whole entry): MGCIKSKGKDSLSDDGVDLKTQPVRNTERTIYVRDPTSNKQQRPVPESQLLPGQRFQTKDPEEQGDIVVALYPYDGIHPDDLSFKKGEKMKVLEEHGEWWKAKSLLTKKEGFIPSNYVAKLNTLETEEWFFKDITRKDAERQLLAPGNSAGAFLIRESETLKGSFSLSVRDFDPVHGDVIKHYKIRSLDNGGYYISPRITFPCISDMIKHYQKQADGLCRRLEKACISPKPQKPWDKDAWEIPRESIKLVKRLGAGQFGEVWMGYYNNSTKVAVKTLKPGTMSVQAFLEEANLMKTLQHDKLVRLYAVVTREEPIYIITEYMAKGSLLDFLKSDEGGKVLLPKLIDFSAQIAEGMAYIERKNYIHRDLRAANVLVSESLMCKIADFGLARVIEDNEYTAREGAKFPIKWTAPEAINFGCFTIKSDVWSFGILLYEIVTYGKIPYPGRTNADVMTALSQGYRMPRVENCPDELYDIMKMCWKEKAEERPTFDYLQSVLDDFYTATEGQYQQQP
# T3 sequence (P07947 whole entry): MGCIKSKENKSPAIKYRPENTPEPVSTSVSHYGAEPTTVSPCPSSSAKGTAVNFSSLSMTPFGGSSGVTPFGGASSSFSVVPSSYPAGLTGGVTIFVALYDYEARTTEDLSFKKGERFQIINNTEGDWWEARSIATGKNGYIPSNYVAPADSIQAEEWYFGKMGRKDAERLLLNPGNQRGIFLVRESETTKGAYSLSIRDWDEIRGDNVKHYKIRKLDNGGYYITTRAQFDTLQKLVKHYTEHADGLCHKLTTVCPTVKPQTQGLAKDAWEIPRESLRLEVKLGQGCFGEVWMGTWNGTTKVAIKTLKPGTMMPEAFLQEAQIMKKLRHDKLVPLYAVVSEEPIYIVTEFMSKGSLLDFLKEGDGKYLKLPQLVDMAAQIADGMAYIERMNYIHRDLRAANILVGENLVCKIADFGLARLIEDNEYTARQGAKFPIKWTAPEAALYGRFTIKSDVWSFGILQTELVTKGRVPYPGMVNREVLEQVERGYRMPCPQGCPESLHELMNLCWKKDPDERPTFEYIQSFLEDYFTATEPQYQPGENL
# T2 sequence (P06241 whole entry): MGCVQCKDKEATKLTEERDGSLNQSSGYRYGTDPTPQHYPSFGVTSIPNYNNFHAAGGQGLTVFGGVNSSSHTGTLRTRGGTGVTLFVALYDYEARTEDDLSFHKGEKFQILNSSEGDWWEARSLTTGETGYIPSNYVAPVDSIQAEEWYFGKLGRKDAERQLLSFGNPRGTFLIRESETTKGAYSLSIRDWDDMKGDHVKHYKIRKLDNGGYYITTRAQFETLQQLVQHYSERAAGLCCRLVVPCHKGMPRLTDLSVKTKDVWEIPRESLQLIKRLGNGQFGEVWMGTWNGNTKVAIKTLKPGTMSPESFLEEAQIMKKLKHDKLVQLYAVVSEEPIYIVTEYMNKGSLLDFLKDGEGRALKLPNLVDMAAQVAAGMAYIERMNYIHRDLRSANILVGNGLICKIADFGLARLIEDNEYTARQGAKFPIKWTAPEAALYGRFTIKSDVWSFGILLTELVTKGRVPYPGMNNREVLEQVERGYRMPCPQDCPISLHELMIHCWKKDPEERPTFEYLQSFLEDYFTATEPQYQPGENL
Compound,IC50 [1],IC50 [2],IC50 [3],IC50 [4],increased activity compared to the hit compound 2 on SH-SY5Y cells [5],IC50 [5],IC50 [6],IC50 [7],melting point,IC50 [8],IC50 [9],IC50 [10]
"COc1ccccc1CCn1cnc(Nc2cc(N3CCN(CC(N)=O)CC3)nc(C)n2)c1 [4d, 2-{4-[6-({1-[2-(2-Methoxyphenyl)ethyl]-1H-imidazol-4-yl}amino)-2-methylpyrimidin-4-yl]piperazin-1-yl}acetamide]",1200 ± 189 nM,1390 ± 93 nM,1530 ± 44 nM,,,,,,,,,
Cc1cc(Nc2nc(N[C@@H](C)c3ncc(F)cn3)ncc2Cl)n[nH]1 [AZD1480],,,,58 nM,,,,,,,,
"Cc1nc(Nc2cn(CCc3cccc(O)c3)cn2)cc(N2CCN(C(=O)OC(C)(C)C)CC2)n1 [4l, tert-Butyl4-[6-({1-[2-(3-hydroxyphenyl)ethyl]-1H-imidazol-4-yl}amino)-2-methylpyrimidin-4-yl]piperazine-1-carboxylate]",26 ± 3 nM,14 ± 1.5 nM,50 ± 3 nM,,more than 2 fold,7800 nM,18900 nM,13300 nM,127 to 130 °C,7 ± 0.35 nM,,
"COc1cccc(CCn2cnc(Nc3cc(N4CCN(CCO)CC4)nc(C)n3)c2)c1 [4a, 2-{4-[6-({1-[2-(3-Methoxyphenyl)ethyl]-1H-imidazol-4-yl}amino)-2-methylpyrimidin-4-yl]piperazin-1-yl}ethanol]",451 ± 13 nM,146 ± 30 nM,260 ± 23 nM,,,,,,,560 ± 40 nM,,
"Cc1nc(Nc2cn(CCc3cccc(O)c3)cn2)cc(N2CCN(CCO)CC2)n1 [4h, 3-{2-[4-({6-[4-(2-Hydroxyethyl)piperazin-1-yl]-2-methylpyrimidin-4-yl}amino)-1H-imidazol-1-yl]ethyl}phenol]",20 ± 0.8 nM,10 ± 0.4 nM,93 ± 19 nM,,,,,,150 to 155 °C,3 ± 1 nM,,
"Cc1nc(Nc2cn(CCc3ccccc3O)cn2)cc(N2CCN(CC(N)=O)CC2)n1 [4g, 2-{4-[6-({1-[2-(2-Hydroxyphenyl)ethyl]-1H-imidazol-4-yl}amino)-2-methylpyrimidin-4-yl]piperazin-1-yl}acetamide]",19 ± 2 nM,40 ± 5 nM,40 ± 5 nM,,,,,,160 to 163 °C,15 ± 4 nM,,
"Cc1nc(Nc2cn(CCc3cccc(O)c3)cn2)cc(N2CCNCC2)n1 [4i, 3-(2-{4-[(2-Methyl-6-piperazin-1-ylpyrimidin-4-yl)amino]-1H-imidazol-1-yl}ethyl)phenol]",27 ± 1 nM,10 ± 0.4 nM,83 ± 18 nM,,,,,,193 to 196 °C,3 ± 0.8 nM,,
"Cc1nc(Nc2cn(CCc3ccccc3O)cn2)cc(N2CCNCC2)n1 [4f, 2-(2-{4-[(2-Methyl-6-piperazin-1-ylpyrimidin-4-yl)amino]-1H-imidazol-1-yl}ethyl)phenol]",51 ± 3 nM,50 ± 4 nM,56 ± 5 nM,,,,,,193 to 196 °C,3 ± 1 nM,,
"COC(=O)CN1CCN(c2cc(Nc3cn(CCc4cccc(O)c4)cn3)nc(C)n2)CC1 [4k, Methyl{4-[6-({1-[2-(3-hydroxyphenyl)ethyl]-1H-imidazol-4-yl}amino)-2-methylpyrimidin-4-yl]piperazin-1-yl}acetate]",18 ± 1 nM,9 ± 1 nM,40 ± 2 nM,,more than 2 fold,8600 nM,11700 nM,12600 nM,127 to 130 °C,3 ± 1 nM,,
"COc1ccccc1CCn1cnc(Nc2cc(N3CCN(CCO)CC3)nc(C)n2)c1 [4c, 2-{4-[6-({1-[2-(2-Methoxyphenyl)ethyl]-1H-imidazol-4-yl}amino)-2-methylpyrimidin-4-yl]piperazin-1-yl}ethanol]",145 ± 31 nM,439 ± 45 nM,225 ± 8 nM,,,,,,,55 ± 9 nM,,
"Cc1nc(Nc2cn(CCc3cccc(O)c3)cn2)cc(N2CCN(CC(N)=O)CC2)n1 [4j, 2-{4-[6-({1-[2-(3-Hydroxyphenyl)ethyl]-1H-imidazol-4-yl}amino)-2-methylpyrimidin-4-yl]piperazin-1-yl}acetamide]",10 ± 1.2 nM,12 ± 2 nM,40 ± 3 nM,,,,,,,3 ± 0.7 nM,,
"Cc1nc(Nc2cn(CCc3ccccc3O)cn2)cc(N2CCN(CCO)CC2)n1 [4e, 2-{2-[4-({6-[4-(2-Hydroxyethyl)piperazin-1-yl]-2-methylpyrimidin-4-yl}amino)-1H-imidazol-1-yl]ethyl}phenol]",17 ± 0.54 nM,73 ± 5 nM,59 ± 5 nM,,,,,,,11 ± 0.6 nM,,
Cc1nc(Nc2cn(CCc3ccccc3)cn2)cc(N2CCN(CCO)CC2)n1 [compound 2],,,,,,,,,,,> 25000 nM,25000 nM
"COc1cccc(CCn2cnc(Nc3cc(N4CCN(CC(N)=O)CC4)nc(C)n3)c2)c1 [4b, 2-{4-[6-({1-[2-(3-Methoxyphenyl)ethyl]-1H-imidazol-4-yl}amino)-2-methylpyrimidin-4-yl]piperazin-1-yl}acetamide]",1810 ± 307 nM,1450 ± 768 nM,1480 ± 185 nM,,,,,,198 to 200 °C,1840 ± 812 nM,,
